In article PMC5118696, “Identification of inhibitors that dually target the new permeability pathway and dihydroorotate dehydrogenase in the blood stage of Plasmodium falciparum” (Scientific Reports, 2016):
Where two headings read alike, the source gives them in different places.

How the values were obtained:
[1] = system: Hyp1-NLuc Plasmodium falciparum-infected erythrocytes (new permeability pathway, NPP); assay: microbe, parasite or virus in culture; conditions: Erythrocyte, 0.33 h, read-out: Mean RLU at 28 min (As % of DMSO control)
[2] = system: Hyp1-NLuc Plasmodium falciparum-infected erythrocytes (new permeability pathway, NPP); assay: microbe, parasite or virus in culture; conditions: Erythrocyte, 0.33 h, read-out: % of control remaining

Structure (SMILES): c1ccc(-c2ccc(-c3nc4ccccc4[nH]3)cc2)cc1 [MMV665891]
- activity at 2 µM [1]: 109%
- activity at 2 µM [2]: 122%

Structure (SMILES): CC(=O)c1sc(NC(=O)Nc2ccc(C)cc2C)nc1C [MMV665894]
- activity at 2 µM [1]: 99.8%
- activity at 2 µM [2]: 93%

Structure (SMILES): COc1ccc2nc(N)nc(C)c2c1 [MMV665897]
- activity at 2 µM [1]: 103%
- activity at 2 µM [2]: 93.5%

Structure (SMILES): COc1cc(C(=O)Nc2ccc(-c3nc4ccccc4[nH]3)cc2)cc(OC)c1OC [MMV665898]
- activity at 2 µM [1]: 108%
- activity at 2 µM [2]: 103%

Structure (SMILES): O=C(c1ccccc1F)N(Cc1ccc(Cl)cc1)c1ccccn1 [MMV665899]
- activity at 2 µM [1]: 102%
- activity at 2 µM [2]: 106%

Structure (SMILES): O=C(Nc1ccc(CN2CCOCC2)cc1)c1ccc(-c2ccc(Br)cc2)o1 [MMV665901]
- activity at 2 µM [1]: 99.8%
- activity at 2 µM [2]: 105%

Structure (SMILES): N=c1n(CCN2CCCCC2)c2ccccc2n1CC(O)c1cccc(Br)c1 (stereo not drawn) [MMV665902]
- activity at 2 µM [1]: 101%
- activity at 2 µM [2]: 115%

Structure (SMILES): COCCn1c(C)nc2ccccc2c1=O [MMV665904]
- activity at 2 µM [1]: 110%
- activity at 2 µM [2]: 112%

Structure (SMILES): Cc1ccc(-c2cc(C(=O)Nc3ccc(S(=O)(=O)N4CCCCC4)cc3)[nH]n2)c(O)c1 [MMV665906]
- activity at 2 µM [1]: 100%
- activity at 2 µM [2]: 105%

Structure (SMILES): COc1ccc(N2CCN(C(CNC(=O)CC(C)(C)C)c3ccc4c(c3)OCO4)CC2)cc1 (stereo not drawn) [MMV665908]
- activity at 2 µM [1]: 92.5%
- activity at 2 µM [2]: 97.1%

Structure (SMILES): O=C(Nc1nc(-c2ccccn2)cs1)c1ccccc1Br [MMV665909]
- activity at 2 µM [1]: 95.5%
- activity at 2 µM [2]: 103%

Structure (SMILES): CCOc1ccc(-c2nc(NC(=O)c3cccc(S(C)(=O)=O)c3)sc2C)cc1 [MMV665913]
- activity at 2 µM [1]: 98.8%
- activity at 2 µM [2]: 106%

Structure (SMILES): COc1ccccc1N1CCN(C(CNS(=O)(=O)c2ccc(Cl)cc2)c2cccnc2)CC1 (stereo not drawn) [MMV665914]
- activity at 2 µM [1]: 102%
- activity at 2 µM [2]: 97.5%

Structure (SMILES): COc1ccc(-c2nc(NC(=O)CS(=O)(=O)c3ccc(F)cc3)sc2C)cc1 [MMV665915]
- activity at 2 µM [1]: 101%
- activity at 2 µM [2]: 98.3%

Structure (SMILES): COc1ccccc1CNC(=O)CCn1c(=O)[nH]c2ccccc2c1=O [MMV665916]
- activity at 2 µM [1]: 98.8%
- activity at 2 µM [2]: 98.4%

Structure (SMILES): O=C(Nc1ccc(Cl)cc1)N1CCN(c2ccc3nncn3n2)CC1 [MMV665917]
- activity at 2 µM [1]: 53.8%
- activity at 2 µM [2]: 27.3%

Structure (SMILES): O=C(CSc1ccc2nnc(-c3cccc(F)c3)n2n1)Nc1ccc2c(c1)OCO2 [MMV665918]
- activity at 2 µM [1]: 106%
- activity at 2 µM [2]: 121%

Structure (SMILES): N=c1c2ccccc2nnn1-c1cccc(C(F)(F)F)c1 [MMV665923]
- activity at 2 µM [1]: 94.3%
- activity at 2 µM [2]: 89.5%

Structure (SMILES): COc1ccc(C(=O)C2CC2c2ccc(Cl)cc2)cc1 (stereo not drawn) [MMV665924]
- activity at 2 µM [1]: 100%
- activity at 2 µM [2]: 103%

Structure (SMILES): O=C(CCl)NCCOc1ccc(Cl)cc1Cl [MMV665927]
- activity at 2 µM [1]: 98.1%
- activity at 2 µM [2]: 86.2%

Structure (SMILES): CCC(C)NCC(O)(c1ccc(Cl)cc1)c1ccc(Cl)cc1 (stereo not drawn) [MMV665928]
- activity at 2 µM [1]: 106%
- activity at 2 µM [2]: 121%

Structure (SMILES): CCCCNCC(O)(c1ccc(Cl)cc1)c1ccc(Cl)cc1 [MMV665929]
- activity at 2 µM [1]: 107%
- activity at 2 µM [2]: 122%

Structure (SMILES): O=C1c2ccccc2-c2nnc(-c3ccc(Br)cc3)cc21 [MMV665934]
- activity at 2 µM [1]: 92.6%
- activity at 2 µM [2]: 97.2%

Structure (SMILES): FC(F)(F)c1ccc(Nc2nnnc3ccccc23)cc1 [MMV665935]
- activity at 2 µM [1]: 99.5%
- activity at 2 µM [2]: 112%

Structure (SMILES): Cc1ccc(S(=O)(=O)c2c(COC(=O)c3cccc(C)c3)c(-c3ccccc3)nn2C)cc1 [MMV665936]
- activity at 2 µM [1]: 97%
- activity at 2 µM [2]: 100%

Structure (SMILES): O=C(Nc1ccsc1C(=O)NC1CCCCC1)c1ccc(F)cc1 [MMV665939]
- activity at 2 µM [1]: 104%
- activity at 2 µM [2]: 115%

Structure (SMILES): CCOc1ccc(C=Cc2nc(=O)c3ccccc3o2)cc1 [MMV665940]
- activity at 2 µM [1]: 61.5%
- activity at 2 µM [2]: 31.3%

Structure (SMILES): CN(C)c1ccc(C(O)(c2ccc(N(C)C)cc2)c2ccc(N(C)C)cc2)cc1 [MMV665941]
- activity at 2 µM [1]: 98.3%
- activity at 2 µM [2]: 96.5%

Structure (SMILES): Nc1ccc(-c2nc3cc(Cc4ccc5[nH]c(-c6ccc(N)cc6)nc5c4)ccc3[nH]2)cc1 [MMV665943]
- activity at 2 µM [1]: 64.3%
- activity at 2 µM [2]: 51.7%

Structure (SMILES): COc1ccc(CN2CCN(Cc3ccccc3)CC2)c(O)c1 [MMV665944]
- activity at 2 µM [1]: 96.8%
- activity at 2 µM [2]: 99.6%

Structure (SMILES): CC(C)=CCN1CCC(C(=O)Nc2ccc(-c3nc4ccccc4[nH]3)cc2)CC1 [MMV665946]
- activity at 2 µM [1]: 106%
- activity at 2 µM [2]: 121%

Structure (SMILES): O=C(Nc1ccccc1O)c1ccc(-c2ccc(Cl)cc2Cl)o1 [MMV665948]
- activity at 2 µM [1]: 105%
- activity at 2 µM [2]: 120%

Structure (SMILES): Oc1ccc(C(=C(Cl)Cl)c2ccc(O)cc2)cc1 [MMV665949]
- activity at 2 µM [1]: 90%
- activity at 2 µM [2]: 95.5%

Structure (SMILES): O=C(Nc1ccc(F)c(Cl)c1)Nc1ccc(Cl)c(Cl)c1 [MMV665953]
- activity at 2 µM [1]: 108%
- activity at 2 µM [2]: 125%

Structure (SMILES): O=C(NCC1Cc2cccc(-c3ccncc3)c2O1)c1csc2c1CCCC2 (stereo not drawn) [MMV665954]
- activity at 2 µM [1]: 104%
- activity at 2 µM [2]: 117%

Structure (SMILES): CCN(CC)CCCNc1nc(-c2ccc(Cl)cc2)nc2ccccc12 [MMV665961]
- activity at 2 µM [1]: 103%
- activity at 2 µM [2]: 101%
